Source: article PMC12507699, “SLC45A4 is a pain gene encoding a neuronal polyamine transporter” (Nature, 2025)

Legend:
SLC45A4 [1] = molecular target: T1, SLC45A4 (Homo sapiens, UniProt Q5BKX6); assay: competition of […]-SPD uptake in Neuro-2A cells overexpressing SLC45A4; also nanoDSF on purified protein; type: cell-based; parameters: full-length human SLC45A4
T1 sequence (Q5BKX6 1-768): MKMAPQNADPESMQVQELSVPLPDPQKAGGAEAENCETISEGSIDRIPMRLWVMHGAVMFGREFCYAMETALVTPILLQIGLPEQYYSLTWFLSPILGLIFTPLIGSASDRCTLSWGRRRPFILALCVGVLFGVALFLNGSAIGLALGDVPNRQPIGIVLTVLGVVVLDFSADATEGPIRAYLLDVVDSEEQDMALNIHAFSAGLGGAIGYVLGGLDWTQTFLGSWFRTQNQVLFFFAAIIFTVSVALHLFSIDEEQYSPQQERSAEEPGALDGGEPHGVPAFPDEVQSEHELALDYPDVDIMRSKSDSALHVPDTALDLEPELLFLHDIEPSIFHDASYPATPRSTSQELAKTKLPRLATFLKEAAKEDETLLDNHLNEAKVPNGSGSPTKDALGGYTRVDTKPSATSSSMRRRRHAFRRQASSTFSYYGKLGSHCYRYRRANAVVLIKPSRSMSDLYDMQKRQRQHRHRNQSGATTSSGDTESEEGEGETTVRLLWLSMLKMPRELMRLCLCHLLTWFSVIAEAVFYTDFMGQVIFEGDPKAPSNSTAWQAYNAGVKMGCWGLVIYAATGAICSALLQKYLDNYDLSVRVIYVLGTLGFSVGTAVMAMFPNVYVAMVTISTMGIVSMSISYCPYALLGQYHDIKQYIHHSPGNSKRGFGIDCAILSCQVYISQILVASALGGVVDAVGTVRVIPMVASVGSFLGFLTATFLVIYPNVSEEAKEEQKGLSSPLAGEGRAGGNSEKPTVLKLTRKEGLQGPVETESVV

SLC45A4 [2] = molecular target: T1, SLC45A4; assay: […]-SPD uptake and homologous competition in Neuro-2A cells overexpressing SLC45A4; also nanoDSF destabilization of purified protein in detergent and nanodiscs; type: cell-based; parameters: full-length human SLC45A4
SLC45A4 [3] = molecular target: T1, SLC45A4; assay: cell-based

IC50 (SLC45A4 [1]) [µM] | SMILES | also measured
67 | NCCCCCN [Cad, cadaverine] | –
74 | NCCCCN [Put, putrescine] | –
– | NCCCCNCCCN [SPD, spermidine] | IC50 (SLC45A4 [2]): 123 µM
– | NCCCNCCCCNCCCN [Spm, spermine] | IC50 (SLC45A4 [3]): 240 µM
